Tests used:
Assay type in all cases: cell-based
[1] = biological target: T1, M3 muscarinic receptor (Homo sapiens, UniProt P20309); assay: Functional mobilization of intracellular calcium (FLIPR) in CHO cells expressing M3; details: for EC50: CHO cells expressing M3, FLIPR calcium; for Emax: CHO, 100% = maximum response obtained with the Carbachol control, read-out: M3 Efficacy
T1 construct: expressed in transfected cells; host or cells: CHO (M3-CHO)
Summary of the method: (§1)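 Recombinant CHO cells loaded with Fluo-3 AM or Calcium 3 dye in pH 7.4 buffer containing 1 mM probenecid, with 0.5% final DMSO. For agonism, compound is added directly. For inhibition, it is preincubated 15 min, or co-applied, before carbachol at EC80. FLIPR fluorescence (ex 488, em 540 nm) is recorded for 60 s.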

[2] = biological target: T2, M4 muscarinic receptor (Homo sapiens, UniProt P08173); assay: Functional mobilization of intracellular calcium (FLIPR) in CHO cells expressing M4; details: for EC50: CHO cells expressing M4, FLIPR calcium; for Emax: CHO, 100% = maximum response obtained with the Carbachol control, read-out: M4 Efficacy
T2 construct: expressed in transfected cells; host or cells: CHO (M4-CHO)
T2 sequence (P08173 1-479): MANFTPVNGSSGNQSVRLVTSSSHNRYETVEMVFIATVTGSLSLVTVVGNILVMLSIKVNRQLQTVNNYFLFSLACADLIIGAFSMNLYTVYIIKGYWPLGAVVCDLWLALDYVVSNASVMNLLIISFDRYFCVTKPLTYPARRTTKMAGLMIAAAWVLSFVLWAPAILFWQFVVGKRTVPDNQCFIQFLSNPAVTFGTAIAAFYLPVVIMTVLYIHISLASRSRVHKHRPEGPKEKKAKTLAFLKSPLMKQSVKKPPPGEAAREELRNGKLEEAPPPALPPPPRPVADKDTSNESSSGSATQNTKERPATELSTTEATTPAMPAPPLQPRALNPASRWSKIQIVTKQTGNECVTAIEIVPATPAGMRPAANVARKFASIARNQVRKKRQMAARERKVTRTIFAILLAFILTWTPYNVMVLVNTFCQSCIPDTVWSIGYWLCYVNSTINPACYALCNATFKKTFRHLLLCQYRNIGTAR
Summary of the method: as §1

[3] = biological target: T3, M1 muscarinic receptor (Homo sapiens, UniProt P11229); assay: Functional mobilization of intracellular calcium (FLIPR) in CHO cells expressing M1; details: for EC50: CHO cells expressing M1, FLIPR calcium; for Emax: CHO, 100% = maximum response obtained with the Carbachol control, read-out: M1 Efficacy
T3 construct: expressed in transfected cells; host or cells: CHO (M1-CHO)
T3 sequence (P11229 1-460): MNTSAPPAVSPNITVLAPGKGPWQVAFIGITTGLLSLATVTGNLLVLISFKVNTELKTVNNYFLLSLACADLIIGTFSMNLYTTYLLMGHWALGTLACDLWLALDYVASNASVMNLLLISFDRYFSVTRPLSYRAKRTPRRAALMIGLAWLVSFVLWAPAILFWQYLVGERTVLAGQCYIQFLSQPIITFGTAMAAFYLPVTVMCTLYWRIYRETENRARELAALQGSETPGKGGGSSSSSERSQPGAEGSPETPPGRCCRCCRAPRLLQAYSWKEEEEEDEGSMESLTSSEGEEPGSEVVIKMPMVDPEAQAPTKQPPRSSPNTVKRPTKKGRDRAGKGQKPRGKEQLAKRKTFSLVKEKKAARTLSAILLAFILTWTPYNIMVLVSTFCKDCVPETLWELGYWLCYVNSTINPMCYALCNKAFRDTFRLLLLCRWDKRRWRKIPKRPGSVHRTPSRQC
Summary of the method: as §1

[4] = biological target: T4, M2 muscarinic receptor (Homo sapiens, UniProt P08172); assay: Functional mobilization of intracellular calcium (FLIPR) in CHO cells expressing M2; details: for EC50: CHO cells expressing M2, FLIPR calcium; for Emax: CHO, 100% = maximum response obtained with the Carbachol control, read-out: M2 Efficacy
T4 construct: expressed in transfected cells; host or cells: CHO (M2-CHO)
T4 sequence (P08172 1-466): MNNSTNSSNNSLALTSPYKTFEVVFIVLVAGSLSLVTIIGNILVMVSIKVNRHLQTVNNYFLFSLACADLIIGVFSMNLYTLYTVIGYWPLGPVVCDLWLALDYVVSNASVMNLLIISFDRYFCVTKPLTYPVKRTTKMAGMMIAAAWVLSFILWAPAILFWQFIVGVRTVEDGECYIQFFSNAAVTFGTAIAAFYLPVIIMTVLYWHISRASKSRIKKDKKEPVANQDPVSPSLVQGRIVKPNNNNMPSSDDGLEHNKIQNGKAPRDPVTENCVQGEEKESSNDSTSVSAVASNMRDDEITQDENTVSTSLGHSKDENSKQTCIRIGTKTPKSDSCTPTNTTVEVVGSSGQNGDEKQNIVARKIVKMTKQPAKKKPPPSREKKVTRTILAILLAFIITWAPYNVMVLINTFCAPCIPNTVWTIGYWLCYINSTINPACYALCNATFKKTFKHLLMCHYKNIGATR
Summary of the method: as §1

T1 sequence (P20309 whole entry): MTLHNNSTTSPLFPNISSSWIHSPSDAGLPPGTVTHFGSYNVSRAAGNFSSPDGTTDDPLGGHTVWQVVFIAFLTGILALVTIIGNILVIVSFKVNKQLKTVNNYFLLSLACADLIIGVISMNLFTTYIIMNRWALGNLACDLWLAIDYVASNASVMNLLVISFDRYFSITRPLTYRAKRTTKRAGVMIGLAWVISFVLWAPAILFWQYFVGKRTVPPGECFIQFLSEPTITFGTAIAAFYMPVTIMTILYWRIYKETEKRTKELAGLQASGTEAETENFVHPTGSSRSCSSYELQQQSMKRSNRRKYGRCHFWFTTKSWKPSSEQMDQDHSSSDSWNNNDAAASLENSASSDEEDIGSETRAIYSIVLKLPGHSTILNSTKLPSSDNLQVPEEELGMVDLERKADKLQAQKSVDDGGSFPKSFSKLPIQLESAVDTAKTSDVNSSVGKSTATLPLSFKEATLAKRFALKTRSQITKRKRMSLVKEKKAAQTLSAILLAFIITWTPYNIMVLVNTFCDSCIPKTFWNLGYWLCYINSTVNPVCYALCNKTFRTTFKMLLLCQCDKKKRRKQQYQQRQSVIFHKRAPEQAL

Row | SMILES | EC50 [1] [µM] | Emax [1] [%] | EC50 [2] [nM] | Emax [2] [%] | EC50 [3] [nM] | Emax [3] [%] | EC50 [4] [µM] | Emax [4] [%]
1 | CC(C)(C)CCN1CCC2(CCCc3ccccc32)CC1 [compound 37] | > 5 | < 25 | < 2000 | 25 to 100 | 2000 to 5000 | 25 to 100 | 2 to 5 | 25 to 100
2 | C[C@H](C(=O)N[C@H]1CCC2(CCN(CCC(C)(C)C)CC2)c2ccccc21)N1CCCCC1=O [compound 38] | > 5 | < 25 | < 2000 | 25 to 100 | < 2000 | 25 to 100 | > 5 | < 25
3 | CCN(C(=O)C1CCCO1)[C@H]1CCC2(CCN(CCC(C)(C)C)CC2)c2ccccc21 (stereo partly shown) [compound 39] | > 5 | < 25 | < 2000 | 25 to 100 | > 5000 | 25 to 100 | > 5 | < 25
4 | Cc1cc(C(=O)N[C@@H]2CCC3(CCN(CCC(C)(C)C)CC3)c3cc(F)ccc32)nn1C [compound 40] | > 5 | < 25 | < 2000 | 25 to 100 | < 2000 | 25 to 100 | < 2 | 25 to 100
5 | CC(=O)N1CCCCC1C(=O)N[C@H]1CCC2(CCN(CCC(C)(C)C)CC2)c2ccccc21 (stereo partly shown) [compound 41] | > 5 | < 25 | < 2000 | 25 to 100 | < 2000 | 25 to 100 | > 5 | < 25
6 | CCN(C(=O)CC(C)(C)O)[C@H]1CCC2(CCN(CCC(C)(C)C)CC2)c2ccccc21 [compound 42] | > 5 | < 25 | < 2000 | 25 to 100 | 2000 to 5000 | 25 to 100 | > 5 | < 25
7 | CC#CCN(C(C)=O)[C@H]1CCC2(CCN(CCC(C)(C)C)CC2)c2ccccc21 [compound 43] | > 5 | < 25 | < 2000 | 25 to 100 | < 2000 | 25 to 100 | < 2 | 25 to 100
8 | CCN(C(=O)C1CCC(=O)C1)[C@H]1CCC2(CCN(CCC(C)(C)C)CC2)c2ccccc21 (stereo partly shown) [compound 44] | > 5 | < 25 | < 2000 | 25 to 100 | 2000 to 5000 | 25 to 100 | > 5 | < 25
9 | CC(=O)N[C@H]1CCC2(CCN(CCC(C)CC(C)(C)C)CC2)c2ccccc21 (stereo partly shown) [compound 45] | > 5 | 25 to 100 | > 5000 | < 25 | < 2000 | 25 to 100 | 2 to 5 | < 25
10 | CC(=O)N[C@H](C)C(=O)N[C@H]1CCC2(CCN(CCC(C)(C)C)CC2)c2cc(F)ccc21 [compound 46] | > 5 | < 25 | < 2000 | 25 to 100 | < 2000 | 25 to 100 | < 2 | 25 to 100
11 | CC(=O)N(C(C)C)[C@H]1CCC2(CCN(CCC(C)C)CC2)c2ccccc21 [compound 47] | > 5 | < 25 | 2000 to 5000 | 25 to 100 | 2000 to 5000 | 25 to 100 | > 5 | < 25
